The IC50 is the concentration at which inhibition is half-maximal.

Data on 13 compounds can be found in patent US11739098B2 (BRISTOL-MYERS SQUIBB COMPANY, priority 2017, dated 2023).

Common to all, as to format: cell-based
Assay [1] concerns the target T1, human TLR7 (Homo sapiens, UniProt Q9NYK1).
T1 construct: host or cells: HEK-Blue cells (HEK293-derived reporter line)
T1 sequence (Q9NYK1 27-1049): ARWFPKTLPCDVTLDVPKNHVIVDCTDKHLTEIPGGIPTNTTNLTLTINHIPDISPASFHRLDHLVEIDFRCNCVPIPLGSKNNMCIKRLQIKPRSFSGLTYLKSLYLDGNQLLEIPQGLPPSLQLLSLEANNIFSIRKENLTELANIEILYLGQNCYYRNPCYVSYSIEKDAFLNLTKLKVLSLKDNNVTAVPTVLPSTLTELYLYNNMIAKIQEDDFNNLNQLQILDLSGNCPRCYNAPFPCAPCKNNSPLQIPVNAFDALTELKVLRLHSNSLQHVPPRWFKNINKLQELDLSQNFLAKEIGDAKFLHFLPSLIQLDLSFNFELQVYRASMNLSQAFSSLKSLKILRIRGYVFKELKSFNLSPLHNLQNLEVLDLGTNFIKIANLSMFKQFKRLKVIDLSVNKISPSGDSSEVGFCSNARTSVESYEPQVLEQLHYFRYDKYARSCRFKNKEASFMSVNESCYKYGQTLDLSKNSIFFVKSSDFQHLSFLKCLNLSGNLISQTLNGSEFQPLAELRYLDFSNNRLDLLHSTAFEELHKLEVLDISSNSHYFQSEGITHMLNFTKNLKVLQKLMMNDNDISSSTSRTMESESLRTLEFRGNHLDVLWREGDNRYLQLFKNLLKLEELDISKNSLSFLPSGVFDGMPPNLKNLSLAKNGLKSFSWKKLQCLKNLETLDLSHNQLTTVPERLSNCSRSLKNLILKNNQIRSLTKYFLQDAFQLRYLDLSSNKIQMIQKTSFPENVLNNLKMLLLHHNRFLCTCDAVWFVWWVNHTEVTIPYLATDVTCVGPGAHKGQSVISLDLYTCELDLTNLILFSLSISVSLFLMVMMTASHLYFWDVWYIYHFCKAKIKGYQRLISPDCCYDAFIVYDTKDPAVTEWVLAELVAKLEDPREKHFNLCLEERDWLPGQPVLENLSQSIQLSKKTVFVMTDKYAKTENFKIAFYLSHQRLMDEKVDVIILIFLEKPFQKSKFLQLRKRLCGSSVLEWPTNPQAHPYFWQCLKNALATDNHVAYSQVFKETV
Briefly: TLR7 inhibition reporter assay (HEK-Blue cells, SEAP reporter, gardiquimod stimulation). The settings on record: HEK-Blue cells overexpressing human TLR7, SEAP reporter, gardiquimod 7.5 μM. An outline of the steps: (§1)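 HEK-Blue cells overexpressing the receptor, with NF-κB/AP-1-driven SEAP, were pre-treated 30 min at room temperature with compound (0.05 nM–50 μM), then stimulated with gardiquimod 7.5 μM (TLR7), R848 15.9 μM (TLR8) or ODN2006 5 nM (TLR9). SEAP was read after 22 h at 37 °C as percent inhibition.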
Background: A reporter such as luciferase makes a cellular process visible.

In assay [2] the target is T2, human TLR9 (Homo sapiens, UniProt Q9NR96).
T2 construct: host or cells: HEK-Blue cells (HEK293-derived reporter line)
T2 sequence (Q9NR96 26-1032): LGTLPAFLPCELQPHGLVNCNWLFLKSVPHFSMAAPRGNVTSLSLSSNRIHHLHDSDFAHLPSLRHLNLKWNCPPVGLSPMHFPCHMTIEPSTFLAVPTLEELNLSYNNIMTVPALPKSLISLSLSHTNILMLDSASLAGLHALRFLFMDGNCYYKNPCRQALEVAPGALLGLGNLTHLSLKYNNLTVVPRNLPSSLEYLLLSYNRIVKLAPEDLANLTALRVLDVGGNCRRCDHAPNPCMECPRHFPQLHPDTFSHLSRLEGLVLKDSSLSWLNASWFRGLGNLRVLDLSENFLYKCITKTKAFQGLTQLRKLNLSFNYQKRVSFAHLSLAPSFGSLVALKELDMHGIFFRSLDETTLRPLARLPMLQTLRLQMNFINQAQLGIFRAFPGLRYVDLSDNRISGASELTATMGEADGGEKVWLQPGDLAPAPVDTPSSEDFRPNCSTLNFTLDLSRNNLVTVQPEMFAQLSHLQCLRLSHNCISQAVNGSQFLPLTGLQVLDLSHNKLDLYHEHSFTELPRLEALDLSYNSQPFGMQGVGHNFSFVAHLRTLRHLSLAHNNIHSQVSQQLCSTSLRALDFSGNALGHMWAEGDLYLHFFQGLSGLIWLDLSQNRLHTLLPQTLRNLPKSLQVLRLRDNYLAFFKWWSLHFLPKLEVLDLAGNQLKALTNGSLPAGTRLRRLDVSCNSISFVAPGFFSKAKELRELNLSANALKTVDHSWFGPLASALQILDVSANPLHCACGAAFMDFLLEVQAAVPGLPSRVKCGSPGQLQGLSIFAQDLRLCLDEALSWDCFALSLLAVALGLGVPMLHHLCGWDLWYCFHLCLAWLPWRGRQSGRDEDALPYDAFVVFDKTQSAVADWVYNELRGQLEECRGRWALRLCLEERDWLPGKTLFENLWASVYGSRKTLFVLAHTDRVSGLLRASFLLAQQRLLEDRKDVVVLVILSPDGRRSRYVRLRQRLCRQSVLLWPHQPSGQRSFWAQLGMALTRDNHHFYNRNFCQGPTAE
Briefly: TLR9 inhibition reporter assay (HEK-Blue cells, SEAP reporter, ODN2006 stimulation). The settings on record: HEK-Blue cells overexpressing human TLR9, SEAP reporter, ODN2006 5 nM. An outline of the steps:
as §1

Assay [3] addresses T3, human TLR8 (Homo sapiens, UniProt Q9NR97).
T3 construct: host or cells: HEK-Blue cells (HEK293-derived reporter line)
T3 sequence (Q9NR97 27-1041): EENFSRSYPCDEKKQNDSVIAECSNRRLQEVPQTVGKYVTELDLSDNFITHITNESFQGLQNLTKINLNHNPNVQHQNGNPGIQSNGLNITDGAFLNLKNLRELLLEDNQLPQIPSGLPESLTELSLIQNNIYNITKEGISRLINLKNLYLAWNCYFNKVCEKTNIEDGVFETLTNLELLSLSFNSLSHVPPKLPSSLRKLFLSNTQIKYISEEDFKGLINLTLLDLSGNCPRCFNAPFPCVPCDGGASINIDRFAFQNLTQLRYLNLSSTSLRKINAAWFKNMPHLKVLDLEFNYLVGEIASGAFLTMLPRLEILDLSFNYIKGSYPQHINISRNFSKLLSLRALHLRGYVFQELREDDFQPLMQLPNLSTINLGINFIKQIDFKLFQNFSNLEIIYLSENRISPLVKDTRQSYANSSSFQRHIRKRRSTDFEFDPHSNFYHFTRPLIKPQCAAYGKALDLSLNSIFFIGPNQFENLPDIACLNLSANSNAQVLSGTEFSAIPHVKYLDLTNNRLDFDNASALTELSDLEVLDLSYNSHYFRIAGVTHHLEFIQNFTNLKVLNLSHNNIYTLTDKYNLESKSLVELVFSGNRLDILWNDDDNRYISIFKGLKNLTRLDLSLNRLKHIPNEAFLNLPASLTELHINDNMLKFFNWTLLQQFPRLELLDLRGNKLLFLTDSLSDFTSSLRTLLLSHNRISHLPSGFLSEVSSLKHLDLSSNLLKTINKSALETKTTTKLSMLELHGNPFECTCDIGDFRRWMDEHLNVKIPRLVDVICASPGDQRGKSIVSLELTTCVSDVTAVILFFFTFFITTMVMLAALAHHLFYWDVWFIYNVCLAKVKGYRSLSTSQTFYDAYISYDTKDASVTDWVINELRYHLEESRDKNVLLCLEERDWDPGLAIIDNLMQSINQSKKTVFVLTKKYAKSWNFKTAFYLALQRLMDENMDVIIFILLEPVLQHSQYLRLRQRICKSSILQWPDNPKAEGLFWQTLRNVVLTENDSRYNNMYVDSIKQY
Briefly: TLR8 inhibition reporter assay (HEK-Blue cells, SEAP reporter, R848 stimulation). Conditions: HEK-Blue cells overexpressing human TLR8, SEAP reporter, R848 15.9 μM. An outline of the steps: as §1

SMILES strings stand for the structures. Some results are limits rather than exact numbers.

Consider `Cc1cc(-c2[nH]c3ccc(C4CCN(C(=O)CN5CC6(COC6)C5)CC4)cc3c2C(C)C)cn2nnnc12` [Example 471, 1-(4-(3-isopropyl-2-(8-methyltetrazolo[1,5-a]pyridin-6-yl)-1H-indol-5-yl)piperidin-1-yl)-2-(2-oxa-6-azaspiro[3.3]heptan-6-yl)ethan-1-one], for which the results for the IC50 in assay [1], in assay [2] and in assay [3] were less than 100 nM, 1000 to 50000 nM and less than 100 nM, respectively.

As for `CC(C)c1c(-c2cn(C)c3ncccc23)[nH]c2ccc(C3CCN(CC(=O)N(C)C)CC3)cc12` [Example 295, 2-(4-(3-isopropyl-2-(1-methyl-1H-pyrrolo[2,3-b]pyridin-3-yl)-1H-indol-5-yl)piperidin-1-yl)-N,N-dimethylacetamide], the values for the IC50 in assay [1], in assay [2] and in assay [3] were less than 100 nM, 1000 to 50000 nM and less than 100 nM, respectively.

As for `Cc1cc(-c2c[nH]c3nccc(-c4[nH]c5ccc(C6CCNCC6)cc5c4C)c23)n(C)n1` [Example 225, 3-(1,3-dimethyl-1H-pyrazol-5-yl)-4-(3-methyl-5-(piperidin-4-yl)-1H-indol-2-yl)-1H-pyrrolo[2,3-b]pyridine], the IC50 in assay [1], in assay [2] and in assay [3] was 100 to 1000 nM throughout.

In the case of `Cc1c[nH]c2nccc(-c3[nH]c4ccc(C5CCNCC5)cc4c3C(C)C)c12` [Example 215, 4-(3-isopropyl-5-(piperidin-4-yl)-1H-indol-2-yl)-3-methyl-1H-pyrrolo[2,3-b]pyridine], the values for the IC50 in assay [1], in assay [2] and in assay [3] were 100 to 1000 nM, 1000 to 50000 nM and 100 to 1000 nM, respectively.

Turning to `Cc1c(-c2[nH]c3ccc(C4CCN(CC(C)(C)O)CC4)cc3c2C(C)C)nn2ncnc2c1C` [Example 747, 1-(4-(2-(7,8-dimethyl-[1,2,4]triazolo[1,5-b]pyridazin-6-yl)-3-isopropyl-1H-indol-5-yl)piperidin-1-yl)-2-methylpropan-2-ol], the results for the IC50 in assay [1], in assay [2] and in assay [3] were less than 100 nM, 1000 to 50000 nM and less than 100 nM, respectively.

Turning to `Cc1cc(-c2[nH]c3ccc(C4CCN(CC(C)(C)O)CC4)cc3c2C(C)C)c2ccccc2n1` [Example 752, 1-(4-(3-isopropyl-2-(2-methylquinolin-4-yl)-1H-indol-5-yl)piperidin-1-yl)-2-methylpropan-2-ol], the IC50 is less than 100 nM in assay [1], 1000 to 50000 nM in assay [2] and less than 100 nM in assay [3].

For the compound `CC(C)N1CCC(c2ccc3[nH]c(-c4ccc5nccn5c4)c(CC(F)F)c3c2)CC1` [Example 948, 6-(3-(2,2-difluoroethyl)-5-(1-isopropylpiperidin-4-yl)-1H-indol-2-yl)imidazo[1,2-a]pyridine], the IC50 in assay [1] was less than 100 nM; in assay [2], 100 to 1000 nM; in assay [3] it was 100 to 1000 nM.

On to `CC(C)c1c(-c2ccc(Cl)c3[nH]ncc23)[nH]c2ccc(C3CCNCC3)cc12` [Example 106, 7-chloro-4-(3-isopropyl-5-(piperidin-4-yl)-1H-indol-2-yl)-1H-indazole], for which the IC50 was in the range of 100 to 1000 nM in assay [1], 1000 to 50000 nM in assay [2] and 100 to 1000 nM in assay [3].

For `Cc1c(-c2[nH]c3ccc(C4CCN(C5CCOCC5)CC4)cc3c2C(C)C)c2cccnc2n1C` [Example 691, 3-(3-isopropyl-5-(1-(tetrahydro-2H-pyran-4-yl)piperidin-4-yl)-1H-indol-2-yl)-1,2-dimethyl-1H-pyrrolo[2,3-b]pyridine], the half-maximal inhibitory concentration (IC50) was less than 100 nM in assay [1], 1000 to 50000 nM in assay [2] and less than 100 nM in assay [3].

On to `CCc1c(-c2ccnc3[nH]ncc23)[nH]c2ccc(C3CCN(C(=O)C4CCNCC4)CC3)cc12` [Example 647, (4-(3-ethyl-2-(1H-pyrazolo[3,4-b]pyridin-4-yl)-1H-indol-5-yl)piperidin-1-yl)(piperidin-4-yl)methanone], for which the IC50 in assay [1] was in the range of 100 to 1000 nM; in assay [2], 1000 to 50000 nM; in assay [3], 100 to 1000 nM.

On to `Cc1cc(-c2[nH]c3ccc(C4CCN(C(=O)CCN5CCS(=O)(=O)CC5)CC4)cc3c2C(C)C)cn2nnnc12` [Example 634, 3-(1,1-dioxidothiomorpholino)-1-(4-(3-isopropyl-2-(8-methyltetrazolo[1,5-a]pyridin-6-yl)-1H-indol-5-yl)piperidin-1-yl)propan-1-one], for which the IC50 in assay [1] is less than 100 nM; in assay [2], greater than 50000 nM; in assay [3] it was 100 to 1000 nM.

Take `Cc1cc2cc(-c3[nH]c4ccc(C5CCN(C(=O)CN(C)C)CC5)cc4c3C(C)C)cc(C)n2n1` [Example 552, 2-(dimethylamino)-1-(4-(2-(2,7-dimethylpyrazolo[1,5-a]pyridin-5-yl)-3-isopropyl-1H-indol-5-yl)piperidin-1-yl)ethan-1-one]: the IC50 is less than 100 nM in assay [1], 100 to 1000 nM in assay [2] and less than 100 nM in assay [3].

Consider `CC(C)c1c(-c2ccn3nccc3c2)[nH]c2ccc(C3CCN(CC(=O)N(C)C)CC3)cc12` [Example 441, 2-(4-(3-isopropyl-2-(pyrazolo[1,5-a]pyridin-5-yl)-1H-indol-5-yl)piperidin-1-yl)-N,N-dimethylacetamide], for which the IC50 was less than 100 nM in assay [1], 1000 to 50000 nM in assay [2] and less than 100 nM in assay [3].
